# Data taken from patent publication US20210048439A1, “CAGED AMINO ACIDS FOR CONTROLLED METABOLIC INCORPORATION AND METHODS OF USE” (University of Washington, priority 2018, published 2021).
# Key:
# [1] = test system: HeLa cells; experiment: Metabolic labeling of Met-depleted HeLa cells; Aha incorporation quantified by protein fluorescence (FAM-BCN, SDS-PAGE); type: cell-based
# Experimental: Subsequent irradiation with UV light (λ=365 nm, 10 mW cm^−2, 5 min) yielded photoliberated Aha for metabolic incorporation. Two hours after light exposure, cells were lysed and their proteins were treated with a bicyclononyne-modified fluorescein (FAM-BCN, 100 nM, FIG. 2E) to introduce a fluorescent label by SPAAC. Protein fluorescence was then used to quantify the extent of Aha incorporation following protein separation by sodium dodecyl sulfate polyacrylamide gel electrophoresis (SDS-PAGE).
# To control the extent of ncAA incorporation into newly synthesized proteins, NPPOC-Aha concentration was varied (0-250 μM) and the intensity of light irradiation (0-10 mW cm^−2) employed during photo-uncaging. […] To determine the potential effects of UV irradiation on metabolic incorporation, labeled protein fluorescence was compared for samples treated with Aha (50 μM)+/−light (10 mW cm^−2, 5 min) (FIG. 3D).
# For in vitro work, borosilicate well plates (Mattek, P35G-1.5-14-C) were pretreated with high glucose Dulbecco's Modified Eagle Media (DMEM) supplemented with fetal bovine serum (FBS, 10%) and penicillin-streptomycin (PS, 1%). Plates were incubated at 37° C. for 10 minutes. HeLa cells were cultured on tissue culture polystyrene before seeding on borosilicate glass. After cells reached the desired confluency (50-60% for imaging; 80-90% for lysate analysis), cells were subjected to the following experiments.
# Cells were rinsed with warm 1× Dulbecco's phosphate buffered saline (DPBS) and starved of methionine (Met) by the addition of Met-depleted media (1 h, 37° C.). Met-depleted media was prepared by adding L-cystine-2HCl (0.2 mM), L-glutamine (4 mM), and sodium pyruvate (1 mM) to depleted media (Fisher, 21013024). Media was removed and cells were treated with media containing NPPOC-Aha at the desired concentration (0-250 μM). Control media consisted of Aha or Met in the place of NPPOC-Aha. Cells were then irradiated with light (365 nm, 1-10 mW/cm2, 5 min). The cultures were then incubated (2 h, 37° C.) to promote Aha incorporation. The cells were then washed with 1×DPBS (37° C.).
# Samples were prepared for sodium dodecyl sulfate polyacrylamide gel electrophoresis (SDS-PAGE) by lysing cells in lysis buffer (10 mM PO4, pH 7.0, 0.5% sodium dodecyl sulfate). Proteins were collected and immediately placed on ice. Free thiols were capped by the addition of iodoacetamide (10 mM, 30 min, room temperature). Azide-containing proteins were labeled by treatment with FAM-BCN (10 μM, 5 hours, room temperature). Excess FAM-BCN was removed by precipitating proteins with 4× sample volume of cold acetone (−20° C.). Lysates were incubated in acetone (1 h, −20° C.) and then subjected to centrifugation (14,000×g, 10 min). Proteins were redissolved in lysis buffer with gentle heating (40° C., 10 min), precipitated once more, and washed with 4× sample volume acetone before drying (20 min). Proteins were then dissolved in SDS-PAGE sample buffer (50 mM Tris-HC, 2% SDS, 10% glycerol, 12.5% β-mercaptoethanol, 0.025% bromophenol blue). Proteins were electrophoretically separated by a 12% polyacrylamide gel by applying a potential of 105 V. After electrophoresis, gels were scanned on a Typhoon FLA9000 fluorescent gel scanner before being stained with coomassie dye.
# [2] = test system: HeLa cells; experiment: Spatial labeling of phototagged cells in 3D tissue culture (PEG hydrogel, slitted photomask); type: cell-based; settings: cells in oxime-based PEG hydrogels (7 wt %), irradiated through slitted photomask
# Text: Cells were encapsulated in oxime-based poly(ethylene glycol) hydrogels (7 wt %), treated with NPPOC-Aha and selectively irradiated through a slitted photomask. Cells were fixed and fluorescently labeled with FAM-BCN, phalloidin, and Hoechst. […] FAM fluorescence decreased exponentially away from exposed regions in a diffusion-predicted manner. Actin and DNA staining lack substantial patterning (FIG. 4).
# HeLa cells were liberated from the tissue culture plate with trypsin, resuspended in FBS-supplemented DMEM, and pelleted by centrifugation. The cells were then gently resuspended in depleted media containing the photocaged Aha. Hydrogel precursors (10 k PEG functionalized with alkoxyamines or benzaldehyde) were combined (1:1 benzaldehyde:alkoxyamine stoichiometry) with cells prior to deposition on a glass-bottomed well plate (7 wt %, 10 mM aniline, 5 million cells/mL). After the gel had formed (30 min), it was inundated with depleted media containing […] (100 μM 30 min). Excess media was removed by aspiration and a subsection of the gel was irradiated with light (365 nm, 10 mW/cm2, 5 min) through a slitted photomask. Gels were washed with warm 1×DPBS (37° C., 15 min) before fixing with formaldehyde (4%, 1 hr, room temperature). Fixed cells were rinsed with 1×DPBS, and permeabilized with Triton™ X-100 (Sigma, 0.5%, 1 hr, room temperature). Cells were then washed (3×, 1 hr each) with 1×DPBS. […]
# [3] = test system: HeLa cells; experiment: NPPOC-Aha in vitro stability in media with HeLa cells; type: in vitro ADME
# Experimental: To assess its in vitro stability, NPPOC-Aha (100 μM) was incubated in media with HeLa cells for 0-4 hr prior to light exposure (10 mW cm^−2, 5 min) and subsequent metabolic labeling (2 hr). […] Such stability is useful in sampling biological systems, as it decouples media swaps from proteome labeling, allowing researchers to standardize their experimental conditions.
# The stability of NPPOC-Aha was conducted using the above protocols for cell culture and SDS-PAGE with minor modifications. Instead of irradiating samples immediately following addition of NPPOC-Aha media, NPPOC-Aha was incubated in the presence of cells for the desired time (0-4 hours) prior to light exposure. Met (3.33 μM) was added to all media, yielding a 30:1 ratio of NPPOC-Aha:Met5.
# [4] = test system: HeLa cells; experiment: Fluorescent labeling of phototagged fixed cells (confocal imaging); type: cell-based; settings: NPPOC-Aha 100 μM in the absence of light
# Experimental: Building on the capability to fluorescently tag cellular lysates as well as isolate species of interest via laBONCAT, the technique's unique ability to label newly synthesized proteins in vitro with spatial control was investigated; this method could be applied to the isolation of proteins […] at user-specified times and locations from heterogeneous features in tissue culture, especially tissue slices. HeLa cells were treated with NPPOC-Aha (100 μM) and exposed to light (λ=365 nm, 10 mW cm^−2, 5 min). Two hours after exposure, cells were fixed, permeabilized, and treated with FAM-BCN (100 nM) to introduce a fluorescent label via SPAAC.
# To fluorescently label Aha-tagged proteins for visualization, cells were rinsed with warm 1×DPBS (37° C.) before fixing with formaldehyde (4%, 10 min, room temperature). Fixed cells were rinsed with 1×DPBS, and permeabilized with Triton™ X-100 (Sigma, 0.5%, 2 min, room temperature). Cells were then washed (3×, 5 min each) with 1×DPBS. Azides were labeled by strain-promoted azide-alkyne cycloaddition (SPAAC) with FAM-BCN (100 nM, 30 min, room temperature) in the dark. Next, labeled cells were washed (3×, 5 min each) with 1×DPBS prior to imaging on a Leica SP8X laser scanning confocal microscope.
# [5] = NPPOC-Aha photo-uncaging (photolysis) kinetics by HPLC; type: physicochemical
# Text: For this system to be effective, the kinetics of NPPOC uncaging should be rapid, such that the liberation of free Aha is not rate limiting compared with the biological processes under study. To determine its photolysis kinetics, NPPOC-Aha (dissolved in H2O:CH3CN, 50:50) was irradiated with collimated UV light (λ=365 nm, 10 mW cm^−2, 0-600 s exposure). Degradation products were quantitatively analyzed by HPLC, with elution fractions compositionally identified by mass spectrometry.
# To determine the kinetics of NPPOC-Aha uncaging upon UV light exposure, NPPOC-Aha (3.4 mM dissolved in 50:50 dH2O:CH3CN) was placed in quartz NMR tubes and irradiated with collimated UV light (365 nm, 10 mW/cm^2) emanating from an OmniCure (series 1500; light intensity measured with Cole-Palmer series 9811 radiometer). Time points were collected every 120 s for a total of 600 s. The resulting degradation products were separated by reverse-phase HPLC, eluting with a CH3CN/dH2O gradient ramping from 5% to 100% CH3CN over 55 minutes. Remaining NPPOC-Aha was identified by HRMS (ESI+). Calculated for C14H18N5O6 [M+1H]+, 352.1257; observed 352.1259 (Δ=0.5 ppm). The HPLC peak corresponding to starting material was integrated and monitored over time.
# [6] = control media with Aha or Met in place of NPPOC-Aha
smiles,measurement,setting,value
"[N-]=[N+]=NCC[C@H](N)C(=O)O [Aha, L-Azidohomoalanine, reference compound]",effect of UV irradiation on protein labeling,"[1]; Aha 50 μM +/− light (10 mW cm^−2, 5 min)",no statistical difference
same,protein fluorescence (extent of Aha incorporation),[1]; [6],significant fluorescent enhancement
same,free Aha concentration above which normalized incorporation plateaus,[1]; incorporation normalized for expected liberated Aha predicted by the photokinetics,about 50 μM
"CSCC[C@H](N)C(=O)O [Met, L-methionine, reference compound]",protein fluorescence (extent of Aha incorporation),[1]; [6],lack of fluorescence
"CC(COC(=O)N[C@@H](CCN=[N+]=[N-])C(=O)O)c1ccccc1[N+](=O)[O-] (stereo partly drawn) [NPPOC-Aha, (2S)-4-azido-2-({[2-(2-nitrophenyl)propoxy]carbonyl}amino)butanoic Acid]",cellular FAM signal pattern (patterned Aha incorporation),[2],localized near exposed regions
same,"Aha incorporation after pre-incubation, non-irradiated samples","[3]; 100 μM, 0-4 hr in media with HeLa cells, no light",did not show increased incorporation over time
same,"Aha incorporation after pre-incubation, irradiated samples","[3]; 100 μM, 0-4 hr in media with HeLa cells, then light",extent decreased over time
same,working time (stability in media with cells),"[3]; NPPOC-Aha 100 μM incubated with HeLa cells 0-4 hr before light (10 mW cm^−2, 5 min), labeling 2 hr",> 4 h
same,extent of fluorescent labeling of fixed cells,[4],low-level labeling similar to Met
same,first-order decay constant for NPPOC photolysis,"[5]; H2O:CH3CN 50:50, collimated UV λ=365 nm, 10 mW cm^−2, 0-600 s",0.0075 ± 0.0002 s⁻¹
same,NPPOC cleaved,"[5]; after 5 minutes of irradiation, 365 nm, 10 mW cm-2",90%
same,Aha incorporation as function of NPPOC-Aha concentration,"[1]; NPPOC-Aha 0-250 μM, given exposure condition",increased with NPPOC-Aha concentration
same,protein fluorescence (extent of Aha incorporation),"[1]; NPPOC-Aha 250 μM, UV-treated (365 nm, 10 mW cm^−2, 5 min), lysis 2 h after exposure",significant fluorescent enhancement
same,protein fluorescence (extent of Aha incorporation),"[1]; NPPOC-Aha 250 μM, non-irradiated",lack of fluorescence
same,dependence of protein labeling on mode of irradiation,[1]; NPPOC-Aha irradiated separately or during incubation with cells,does not depend on whether NPPOC-Aha is irradiated separately or during incubation with cells
same,incorporation of irradiated NPPOC-Aha compared with Aha,"[1]; each at 100 μM, NPPOC-Aha + light",slightly less incorporation than Aha alone
same,metabolic labeling as function of light intensity,"[1]; low NPPOC-Aha concentrations, 0-10 mW cm^−2",increased with light intensity
